Like-named read-outs stand apart in the source and are kept apart here.
What was measured:
5-HT1A human receptors = target: T1, 5-HT1A human receptors (Homo sapiens, UniProt P08908); experiment: 5-HT1A Radioligand Receptor Binding Assay ([3H]-8-OH-DPAT, CHO cell membranes); details: for inhibition at 0.1 µM: compound at 10^-7 M, singlicate, [3H]-8-OH-DPAT 0.6-0.7 nM, read-out: 5-HT1A receptor binding assay % inhib. (10^-7 M)
T1 construct: expressed in transfected cells; host or cells: CHO cells
T1 sequence (P08908 1-422): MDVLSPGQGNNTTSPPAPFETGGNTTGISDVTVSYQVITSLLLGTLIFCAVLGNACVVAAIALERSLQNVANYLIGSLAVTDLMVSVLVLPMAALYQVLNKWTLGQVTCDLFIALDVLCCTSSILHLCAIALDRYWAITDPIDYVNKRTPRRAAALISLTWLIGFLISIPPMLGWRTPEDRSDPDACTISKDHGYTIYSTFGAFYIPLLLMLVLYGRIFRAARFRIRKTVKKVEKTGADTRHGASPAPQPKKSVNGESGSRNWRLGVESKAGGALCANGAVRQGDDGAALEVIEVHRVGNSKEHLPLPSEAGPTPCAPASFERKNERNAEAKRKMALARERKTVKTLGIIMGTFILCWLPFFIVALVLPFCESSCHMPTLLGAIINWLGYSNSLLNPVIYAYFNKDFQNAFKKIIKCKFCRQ
Protocol: Membranes from CHO cells, expressing 5-HT1A human receptors were suspended in incubation buffer.
The compounds were tested in singlicate at one concentration (10^-7 M) in a total volume of 1000 µl. 980 µl of diluted membranes, 10 µl DMSO or unlabelled ligand and 10 µl of [^3H]-8-OH-DPAT (0.6-0.7 nM) were incubated for 60 min at 27 °C. The reaction was stopped by rapid filtration through Tomtec cell Harvester (48 wells) using Filtermat B (presoaked in 0.1% PEI) filters. […] Non specific binding was determined in the presence of 5-HT (10^-5 M).
(§1) The specific radioligand binding to the receptor was defined by the difference between total binding and non specific binding, determined in the presence of an excess of unlabelled ligand. Results were expressed as percentage of control specific binding obtained in the presence of the compounds.
The affinity values (IC50) for the compounds were obtained by a non linear least squares regression analysis on the basis of a one binding site model.

D4 human receptors = target: T2, D4 human receptors (Homo sapiens, UniProt P21917); experiment: D4 Radioligand Receptor Binding Assay ([3H] YM-09151-2, CHO cell membranes); details: compound at 10^-7 M, singlicate; [3H] YM-09151-2 0.15-0.25 nM; read-out: D4 receptor binding assay % inhib. (10^-7 M)
T2 construct: expressed in transfected cells; host or cells: CHO cells
T2 sequence (P21917 1-419): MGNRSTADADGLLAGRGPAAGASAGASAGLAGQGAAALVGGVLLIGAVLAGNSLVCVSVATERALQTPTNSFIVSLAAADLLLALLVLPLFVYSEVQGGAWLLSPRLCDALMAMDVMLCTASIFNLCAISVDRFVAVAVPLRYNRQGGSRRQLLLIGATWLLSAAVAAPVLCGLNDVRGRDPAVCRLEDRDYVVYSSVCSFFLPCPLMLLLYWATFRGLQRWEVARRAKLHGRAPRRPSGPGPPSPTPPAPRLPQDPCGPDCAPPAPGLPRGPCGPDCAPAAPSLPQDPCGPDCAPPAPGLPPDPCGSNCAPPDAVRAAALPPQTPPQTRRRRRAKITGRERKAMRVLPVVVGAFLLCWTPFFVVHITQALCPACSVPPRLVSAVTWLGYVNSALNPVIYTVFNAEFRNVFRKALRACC
Protocol: Membranes from CHO cells, expressing D4 human receptors were suspended in incubation buffer.
Binding assays were performed in MultiProbe 204 pipetting system (Packard), according to a predetermined mapping, consistent with the software Screen. The compounds were tested in singlicate at one concentration (10^-7 M) in a total volume of 1000 µl (980 µl of diluted membranes, 10 µl DMSO or unlabelled ligand and 10 µl of [^3H] YM-09151-2 (0.15-0.25 nM). After incubation for 120 min at 27 °C, the reaction was stopped by rapid filtration through Tomtec cell Harvester (48 wells) using Filtermat B (presoaked in 0.1% PEI) filters. Filters were washed with ice-cold 50 mM Tris-HCl (pH 7.4) buffer (9 x 700 µl), dryed, covered with MeltiLex B/HS (Wallac) scintillator sheets and heated in oven at 80-90 °C for about 10 min, transferred into plastic sample bags (Wallac), sealed and put into 1024 Beta Plate scintillation counter (Wallac). Non specific binding was determined in the presence of clozapine dissolved in DMSO to a final concentration of 10^-5 M.
as §1

CHO/5-HT1A cells = target: T3, CHO/5-HT1A cells (Homo sapiens, UniProt P08908); experiment: 5-HT1A Functional assay (cAMP); assay type: cell-based; details: 10 µM compound, % inhibition of the cAMP accumulation induced by 10 µM FSK; for inhibition at 10 µM: read-out: 5-HT1A cAMP % inhib.
T3 construct: expressed in transfected cells; host or cells: CHO/5-HT1A cells
T3 sequence (P08908 1-422): T1 sequence (P08908 1-422)
Protocol: CHO/5-HT1A cells were random seeded at a density of about 200,000/well in 24 well plates the day prior to the experiment. On the day of the experiment, cells were pretreated for 15 min at 37 °C with 500 µM isobuthylmethylxantine (IBMX) dissolved in culture medium without serum. Wells were then divided in different groups in duplicate as follows: control, 10 µM FSK, 10 µM FSK + 1 µM 5-HT as positive standard and 10 µM FSK + 10 µM of the different compound under evaluation. Sample solutions were added and incubated for additional 15 min at 37 °C. After incubation, medium was aspirated and the reaction stopped by adding 200 µl of lysis buffer. Plates were shaken for 5 min, then the lysate was removed and samples were stored at 4 °C until the day of the assay. For the cAMP evaluation, samples were properly diluted and the cAMP content was measured by an enzymeimmunoassay system.

[1] = [3H]-8-OH-DPAT displacement, CHO membranes, read-out: 5-HT1A receptor binding IC50

Structure (SMILES) | IC50 (5-HT1A human receptors; [1]) [nM] | inhibition at 0.1 µM (5-HT1A human receptors) [%] | inhibition at 0.1 µM (D4 human receptors) [%] | inhibition at 10 µM (CHO/5-HT1A cells) [%] | IC50 (5-HT1A human receptors) [nM] | 5-HT1A cAMP % inhib. (CHO/5-HT1A cells) [%]
COCCn1c(=O)n(CCCCN2CCN(c3cccc(Cl)c3)CC2)c2ccccc21 [compound 5] | 13 | 92 | 54 | 63 | – | –
Cc1cccc(N2CCN(CCCCn3c(=O)n(CCN4CCCCC4)c4ccccc43)CC2)c1C [compound 37] | 16 | 90 | 54 | 44 | – | –
O=c1n(CCO)c2ccccc2n1CCCCN1CCN(c2cccc(Cl)c2)CC1 [compound 60] | 6.2 | 93 | 82 | 65 | – | –
O=c1n(CCO)c2ccccc2n1CCCCN1CCN(c2cccc(C(F)(F)F)c2)CC1 [compound 64] | – | 92 | 43 | 52 | 12 | –
Cc1cccc(N2CCN(CCn3c(=O)n(CCN4CCCCC4)c4ccccc43)CC2)c1C [compound 158] | 13 | 95 | 72 | 48 | – | –
COCCn1c(=O)n(CCN2CCN(c3cccc(Cl)c3)CC2)c2ccccc21 [compound 164] | 4.2 | 96 | 41 | 73 | – | –
O=c1n(CCO)c2ccccc2n1CCN1CCN(c2cccc(C(F)(F)F)c2)CC1 [compound 187] | 8.2 | 94 | 36 | 44 | – | –
CCNC(=O)OCCn1c(=O)n(CCN2CCN(c3cccc(Cl)c3)CC2)c2ccccc21 [compound 202] | 1.7 | – | – | 72 | – | –
CCNC(=O)OCCn1c(=O)n(CCN2CCN(c3cccc(C)c3)CC2)c2ccccc21 [compound 217] | 5.2 | – | – | 68 | – | –
CCNC(=O)OCCn1c(=O)n(CCN2CCN(c3ccccc3Cl)CC2)c2ccccc21 [compound 219] | 15 | 89 | 37 | 61 | – | –
O=c1n(C/C=C\CN2CCN(c3ccccc3)CC2)c2ccccc2n1CCN1CCCCC1 [compound 310] | – | 85 | 49 | 63 | – | –
O=c1n(C/C=C\CN2CCN(c3cccc(C(F)(F)F)c3)CC2)c2ccccc2n1CCN1CCCCC1 [compound 318] | – | 92 | 36 | 61 | – | –
O=c1n(C/C=C/CN2CCN(c3ccccn3)CC2)c2ccccc2n1CCN1CCCCC1 [compound 330] | – | 97 | 84 | 62 | – | –
O=c1n(C/C=C/CN2CCc3c([nH]c4ccccc34)C2)c2ccccc2n1CCN1CCCCC1 [compound 333] | – | 99 | 80 | 67 | – | –
O=c1n(C/C=C/CN2CCN(c3cccc(C(F)(F)F)c3)CC2)c2ccccc2n1CCN1CCCCC1 [compound 335] | 3.5 | 95 | 55 | 69 | – | –
O=c1n(C/C=C\CN2CCN(c3cccc(Cl)c3)CC2)c2ccccc2n1CCO [compound 365] | – | 89 | – | 82 | – | –
O=c1n(C/C=C\CN2CCN(c3cccc(C(F)(F)F)c3)CC2)c2ccccc2n1CCO [compound 369] | – | 96 | 59 | 84 | – | –
CCNC(=O)OCCn1c(=O)n(C/C=C/CN2CCN(c3ccccn3)CC2)c2ccccc21 [compound 415] | – | – | – | 82 | – | –
CCNC(=O)OCCn1c(=O)n(CC=CCN2CCN(c3cccc(C(F)(F)F)c3)CC2)c2ccccc21 [compound 420] | – | – | – | – | – | 87
CCNC(=O)OCCn1c(=O)n(CC=CCN2CC=C(c3ccccc3)CC2)c2ccccc21 [compound 421] | – | – | – | – | – | 56
CC(=O)NCCn1c(=O)n(C/C=C\CN2CCN(c3cccc(C(F)(F)F)c3)CC2)c2ccccc21 [compound 459] | – | – | – | 86 | – | –
CC(=O)NCCn1c(=O)n(C/C=C\CN2CCN(c3cccc(C)c3C)CC2)c2ccccc21 [compound 468] | 3.1 | – | – | 66 | – | –
CC(=O)NCCn1c(=O)n(C/C=C\CN2CCN(c3ccccc3Cl)CC2)c2ccccc21 [compound 472] | – | – | – | 67 | – | –
CS(=O)(=O)NCCn1c(=O)n(CC=CCN2CCN(c3cccc(Cl)c3)CC2)c2ccccc21 [compound 499] | – | – | – | 74 | – | –
CS(=O)(=O)NCCn1c(=O)n(C/C=C\CN2CCN(c3cccc(C(F)(F)F)c3)CC2)c2ccccc21 [compound 503] | – | – | – | 87 | – | –
Cc1cccc(N2CCN(C/C=C\Cn3c(=O)n(CCNS(C)(=O)=O)c4ccccc43)CC2)c1C [compound 512] | – | – | – | 68 | – | –
Cc1cccc(N2CCN(CC=CCn3c(=O)n(CCNS(C)(=O)=O)c4ccccc43)CC2)c1 [compound 514] | – | – | – | 67 | – | –
CS(=O)(=O)NCCn1c(=O)n(C/C=C/CN2CCN(c3ccccn3)CC2)c2ccccc21 [compound 520] | – | – | – | 70 | – | –
CS(=O)(=O)NCCn1c(=O)n(CC=CCN2CCN(c3cccc(Cl)c3)CC2)c2ccccc21 [compound 521] | – | – | – | – | – | 67
Cc1cccc(N2CCN(C/C=C/Cn3c(=O)n(CCNS(C)(=O)=O)c4ccccc43)CC2)c1 [compound 536] | 9.5 | – | – | 55 | – | –
